Data published in US5219866A, “Octadecyl-[2-(N-methylpiperidino)-ethyl]-phosphate and a process for its preparation” (Asta Medica AG, priority 1991, dated 1993).
Converted amounts (≈) assume the structure as drawn.

Experiments:
[1] = system: human KB tumor cell line which is transplanted in nude mice; assay: Growth inhibition index WHI in vivo, human KB tumour cell line transplanted into nude mice; design: species or system human (KB tumour); nude mice (host); conditions: for Growth inhibition index WHI in % in vivo/humane KB tumour cell line transplanted into nude: 14th day after treatment related to the value on the day of application, WHI >100% = tumors became smaller
Protocol: Growth inhibition index WHI in % in vivo/humane
Substance KB tumour cell line transplanted into nude
The growth inhibition index WHI is determined in the human KB tumor cell line which is transplanted in nude mice. The growth inhibition index is defined as follows: [formula] of the treated group or in the control group on the 14th day after treatment related to the value on the day of application. […] In other words, the higher the WHI, the stronger the antitumor efficacy of a test substance.
(§1) The compounds of the invention display a good antineoplastic effect in the KB tumor (human carcinoma of the buccal cavity, transplanted subcutaneously to nude mice) and in autochthonous, chemically-induced DMBA-breast gland cancer in the rat.

[2] = system: Human KB tumour cell line; assay: EC90, growth inhibition of human KB tumour cell line in vitro; type: cell-based; conditions: concentration which inhibits growth of cancer cells in vitro by 90%, read-out: ECqo in μg/ml Human KB tumour cell line in vitro
Protocol: Human KB tumour cell line in
The EC90 is determined in vitro in the same cell line. The EC90 is the concentration of substance having an antitumor effect in μg/ml which inhibits the growth of cancer cells in vitro by 90% in comparison to a control experiment without addition of the antitumor-acting substance.

lipoxygenase = lipoxygenase inhibition; type: biochemical
phospholipase-A2 = phospholipase-A2 inhibition; type: biochemical
[3] = system: blood platelet aggregation; assay: inhibition of blood platelet aggregation; type: cell-based
DMBA-breast gland cancer = assay: autochthonous, chemically-induced DMBA-breast gland cancer in the rat; type: in vivo; conditions: oral, 21.5 mg/kg body weight daily, 14-day treatment
Excerpt: as §1

| Structure (SMILES) | Growth inhibition index WHI in % in vivo/humane KB tumour cell line transplanted into nude [1] [%] | IC90 [2] [µg/mL] | lipoxygenase-inhibiting effect (lipoxygenase) | phospholipase-A2-inhibiting effect (phospholipase-A2) | regression of the KB tumors ([1]; 2×316 mg/kg body weight, given at intervals of one week) | inhibition of blood platelet aggregation [3] | regression of DMBA tumors weighing 5 g (DMBA-breast gland cancer) |
| --- | --- | --- | --- | --- | --- | --- | --- |
| CCCCCCCCCCCCCCCCCCOP(=O)([O-])OCC[N+](C)(C)C [D 19391] | 11 | 0.31 (≈ 0.712 µM) |  |  |  |  |  |
| CCCCCCCCCCCCCCCCCCOP(=O)([O-])OCC[N+]1(CC)CCCCC1 [D 20931] | 13 | 1 (≈ 2.04 µM) |  |  |  |  |  |
| CCCCCCCCCCCCCCCCCCOP(=O)([O-])OCC[n+]1ccccc1 [D 19862] | 0 | > 1 |  |  |  |  |  |
| CCCCCCCCCCCCCCCCCCOP(=O)([O-])OCC[N+]1(C)CCCCC1 [D 20133, Octadecyl-[2-(N-methylpiperidino)-ethyl]-phosphate] | 121 | 0.3 (≈ 0.631 µM) | lipoxygenase-inhibiting effect | phospholipase-A2 -inhibiting | achieved a regression of the KB tumors | causes inhibition of blood platelet aggregation | regressed to the borderline of palpability |
| CCCCCCCCCCCCCCCCCCOP(=O)([O-])OCC[N+]1(C)CCOCC1 [D 20680] | 0 | > 10 |  |  |  |  |  |
| CCCCCCCCCCCCCCCCCCOP(=O)([O-])OCC[N+]1(C)CCCCCC1 [D20918] | 0 | 1 (≈ 2.04 µM) |  |  |  |  |  |
